Series [1] concerns the target T1, Alpha-1A adrenergic receptor (Rattus norvegicus, UniProt P43140).
T1 sequence (P43140 whole entry): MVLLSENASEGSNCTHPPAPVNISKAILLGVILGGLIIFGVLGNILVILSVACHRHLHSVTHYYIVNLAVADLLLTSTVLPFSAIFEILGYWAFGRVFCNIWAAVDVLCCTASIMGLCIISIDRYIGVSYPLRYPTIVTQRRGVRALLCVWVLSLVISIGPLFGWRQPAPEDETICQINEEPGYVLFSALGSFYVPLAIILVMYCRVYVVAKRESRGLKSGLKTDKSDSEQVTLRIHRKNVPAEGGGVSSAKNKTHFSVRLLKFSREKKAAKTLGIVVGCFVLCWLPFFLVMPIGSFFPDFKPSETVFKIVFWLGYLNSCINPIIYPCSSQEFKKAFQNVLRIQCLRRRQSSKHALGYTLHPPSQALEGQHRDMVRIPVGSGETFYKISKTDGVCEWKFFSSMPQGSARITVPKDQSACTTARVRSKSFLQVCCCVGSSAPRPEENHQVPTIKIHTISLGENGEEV
The experiment in a line: DRUGMATRIX: Alpha-1A adrenergic receptor radioligand binding (ligand: prazosin). Format: cell membranes, Wistar, Submaxillary gland, Membrane. Particulars: Not Active = under 50% inhibition at 10 µM.

The nature of series [2]: DRUGMATRIX: ATPase, Na+/K+ enzyme inhibition (substrate: ATP). Particulars: Not Active = under 50% inhibition at 10 µM. In kind it is tissue-based, Sus scrofa, Heart.
Series [3] can be described thus: DRUGMATRIX: beta-Lactamase enzyme inhibition (substrate: Nitrocefin). Particulars: Not Active = under 50% inhibition at 10 µM. Further details: species or system Bacillus cereus.
Series [4] has as its target T2, Cholecystokinin receptor type A (Homo sapiens, UniProt P32238). Note: in other assays of this panel Not Active means under 50% inhibition at 10 µM.
T2 sequence (P32238 whole entry): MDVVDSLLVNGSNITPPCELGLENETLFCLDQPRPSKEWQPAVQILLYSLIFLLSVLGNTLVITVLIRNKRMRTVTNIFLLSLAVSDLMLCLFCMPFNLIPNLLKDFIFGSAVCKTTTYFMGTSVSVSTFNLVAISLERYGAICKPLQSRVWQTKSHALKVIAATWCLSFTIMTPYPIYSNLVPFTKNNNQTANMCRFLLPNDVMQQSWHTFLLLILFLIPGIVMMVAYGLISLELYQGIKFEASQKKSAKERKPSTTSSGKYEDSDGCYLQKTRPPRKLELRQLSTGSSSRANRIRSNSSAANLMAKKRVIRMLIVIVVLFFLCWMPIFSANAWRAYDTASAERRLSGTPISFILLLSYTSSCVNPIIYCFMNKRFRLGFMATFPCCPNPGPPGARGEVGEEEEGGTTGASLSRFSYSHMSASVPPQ
Format: cell membranes, Membrane. Particulars: 1321-n1.

The target of another series is D(1A) dopamine receptor (Homo sapiens, UniProt P21728). Nature of the series: DRUGMATRIX: Dopamine D1 radioligand binding (ligand: [3H] SCH-23390). In kind it is cell membranes, CHO, Membrane. Particulars: cho; Not Active = under 50% inhibition at 10 µM.
Chain of D(1A) dopamine receptor (P21728 whole entry): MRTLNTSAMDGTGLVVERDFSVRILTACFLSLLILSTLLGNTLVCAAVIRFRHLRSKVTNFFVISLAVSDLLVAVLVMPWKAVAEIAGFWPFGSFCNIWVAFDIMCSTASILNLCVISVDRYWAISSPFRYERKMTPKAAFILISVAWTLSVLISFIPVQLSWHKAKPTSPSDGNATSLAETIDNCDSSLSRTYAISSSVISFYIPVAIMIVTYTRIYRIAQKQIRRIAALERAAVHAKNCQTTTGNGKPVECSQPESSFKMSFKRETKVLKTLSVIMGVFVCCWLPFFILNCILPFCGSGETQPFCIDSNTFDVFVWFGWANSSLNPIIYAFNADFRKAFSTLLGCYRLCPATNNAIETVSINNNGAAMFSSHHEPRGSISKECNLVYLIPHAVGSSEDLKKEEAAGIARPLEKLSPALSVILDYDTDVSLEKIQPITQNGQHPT
Series [5] has as its target Sodium-dependent dopamine transporter (Homo sapiens, UniProt Q01959). Nature of the series: DRUGMATRIX: Dopamine Transporter radioligand binding (ligand: [125I] RTI-55). In kind it is cell membranes, CHO-K1, Membrane. To be noted: Not Active = under 50% inhibition at 10 µM.
Series [6] in a line: DRUGMATRIX: Phosphodiesterase PDE3 enzyme inhibition (substrate: [3H]cAMP + cAMP). Format: tissue-based, Homo sapiens. To be noted: platelet; Not Active = under 50% inhibition at 10 µM.
A further series deals with Cytochrome P450 2E1 (Homo sapiens, UniProt P05181). To be noted: bti-tn-5b1-4.
Chain of Cytochrome P450 2E1 (P05181 whole entry): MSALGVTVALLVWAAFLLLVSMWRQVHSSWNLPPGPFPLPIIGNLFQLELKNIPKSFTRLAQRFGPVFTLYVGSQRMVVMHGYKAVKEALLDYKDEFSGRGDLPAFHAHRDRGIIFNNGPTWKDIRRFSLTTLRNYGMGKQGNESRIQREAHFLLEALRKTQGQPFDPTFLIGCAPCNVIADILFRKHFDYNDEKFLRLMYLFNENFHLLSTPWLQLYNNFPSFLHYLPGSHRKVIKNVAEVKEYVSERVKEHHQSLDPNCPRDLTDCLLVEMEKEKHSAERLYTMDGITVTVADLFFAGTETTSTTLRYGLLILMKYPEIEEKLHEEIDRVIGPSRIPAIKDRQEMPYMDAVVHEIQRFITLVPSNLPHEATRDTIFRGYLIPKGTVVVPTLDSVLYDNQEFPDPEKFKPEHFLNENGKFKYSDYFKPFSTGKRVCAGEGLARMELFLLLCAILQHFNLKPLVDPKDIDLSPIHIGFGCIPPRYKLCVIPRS

Chain of Sodium-dependent dopamine transporter (Q01959 whole entry): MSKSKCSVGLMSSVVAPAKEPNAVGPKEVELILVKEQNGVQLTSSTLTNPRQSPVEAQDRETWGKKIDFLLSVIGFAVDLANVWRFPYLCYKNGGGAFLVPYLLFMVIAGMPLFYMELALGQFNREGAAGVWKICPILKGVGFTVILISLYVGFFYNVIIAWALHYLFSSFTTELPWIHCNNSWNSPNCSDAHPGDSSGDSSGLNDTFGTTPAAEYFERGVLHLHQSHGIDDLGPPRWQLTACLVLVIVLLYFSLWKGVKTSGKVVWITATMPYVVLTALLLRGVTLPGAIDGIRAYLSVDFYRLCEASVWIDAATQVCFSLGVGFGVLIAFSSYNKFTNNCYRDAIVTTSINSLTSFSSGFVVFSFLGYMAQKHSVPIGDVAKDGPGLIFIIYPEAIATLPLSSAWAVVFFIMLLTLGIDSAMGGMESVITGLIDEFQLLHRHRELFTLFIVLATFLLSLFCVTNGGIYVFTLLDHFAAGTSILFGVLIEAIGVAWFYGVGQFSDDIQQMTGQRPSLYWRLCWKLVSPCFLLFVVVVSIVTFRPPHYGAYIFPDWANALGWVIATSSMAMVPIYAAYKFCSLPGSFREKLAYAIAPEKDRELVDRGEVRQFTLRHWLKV

As usually defined, the IC50 is the concentration at which inhibition is half-maximal. The term Ki denotes a dissociation constant, usually derived from enzyme kinetics or from competition with a known ligand. As to `Cc1c(C)c2c(c(C)c1O)CCC(C)(CN1CCN(c3cc(N4CCCC4)nc(N4CCCC4)n3)CC1)O2` (centres undefined), the concentration for half-maximal inhibition (IC50) entry is “Not Active” in series [1]; “Not Active” in series [2]; “Not Active” in series [3]; “Not Active” in series [4]; “Not Active” on D(1A) dopamine receptor; 13400 nM in series [5] (read-out: IC50). In addition, the concentration for half-maximal inhibition (IC50) result in series [6] was “Not Active”. Also, the Ki entry in series [2] is “Not Active”; in series [3], “Not Active”; in series [5] (read-out: Ki), 10600 nM; in series [6] it was “Not Active”.
Turning to `COc1ccc(CCN(C)CCCC(C#N)(c2ccc(OC)c(OC)c2)C(C)C)cc1OC` (centres undefined), the IC50 entry (in series [2]; in series [3]; in series [4]; on D(1A) dopamine receptor; in series [5] (cho-k1); in series [6]) was “Not Active” each time. Besides, at Cytochrome P450 2E1, the IC50 entry is given as “Not Active”. Also, the Ki entry (in series [2]; in series [3]; in series [6]; on Cytochrome P450 2E1) was “Not Active” each time.
`CC(C)Cc1ccc([C@@H](C)C(=O)O)cc1` [(R)-IBUPROPHEN]: the IC50 result (in series [1]; in series [2]; in series [3]; in series [4]; on D(1A) dopamine receptor; in series [5] (cho-k1)) was “Not Active” throughout. The 50% inhibitory concentration (IC50) entry (in series [6]; at Cytochrome P450 2E1) was “Not Active” throughout. For the same molecule, the Ki result (in series [2]; in series [3]; in series [6]; at Cytochrome P450 2E1) was “Not Active” each time.
Consider `CN(C)CCOC(c1ccccc1)c1ccccc1` [DIPHENHYDRAMINE], for which the concentration for half-maximal inhibition (IC50) entry in series [1], in series [4] and in series [5] (cho-k1) was “Not Active” throughout.
Turning to `Clc1ccc(COC(Cn2ccnc2)c2ccc(Cl)cc2Cl)cc1` (centres undefined) [ECONAZOLE], the IC50 in series [1] (read-out: IC50) was 21200 nM; in series [4], “Not Active”; against Cytochrome P450 2E1, “Not Active”. The Ki is 8570 nM in series [1] (read-out: Ki) and “Not Active” on Cytochrome P450 2E1.
Regarding `CCN(CC)CCOc1ccc(/C(=C(/Cl)c2ccccc2)c2ccccc2)cc1` [ENCLOMIPHENE], the IC50 entry (in series [1]; in series [4]; on Cytochrome P450 2E1) was “Not Active” throughout. For the same molecule, the Ki result on Cytochrome P450 2E1 is listed as “Not Active”.
For `Fc1ccc(C(c2ccc(F)cc2)N2CCN(C/C=C/c3ccccc3)CC2)cc1` [FLUNARIZINE], the half-inhibitory concentration (IC50) in series [1] (read-out: IC50) is 1090 nM; in series [4] it was “Not Active”; in series [5] (read-out: IC50) it was 584 nM; against Cytochrome P450 2E1, “Not Active”. Further, the inhibitory constant (Ki) in series [1] (read-out: Ki) is 440 nM; in series [5] (read-out: Ki) it was 464 nM; on Cytochrome P450 2E1, “Not Active”.
Take `CNCCC(Oc1ccc(C(F)(F)F)cc1)c1ccccc1` (centres undefined) [FLUOXETINE]: the IC50 entry (in series [1]; in series [4]; in series [5] (cho-k1); against Cytochrome P450 2E1) was “Not Active” each time. Further, the Ki result at Cytochrome P450 2E1 is listed as “Not Active”.
Turning to `Cc1ccc(NC(=O)c2ccc(CN3CCN(C)CC3)cc2)cc1Nc1nccc(-c2cccnc2)n1` [IMATINIB], the IC50 result (in series [1]; in series [4]; in series [5] (cho-k1); on Cytochrome P450 2E1) was “Not Active” in each case. Besides, the inhibition constant Ki result on Cytochrome P450 2E1 is “Not Active”.
For the molecule `CC(C)Oc1ccc2c(=O)c(-c3ccccc3)coc2c1` [IPRIFLAVONE], the half-inhibitory concentration (IC50) result (in series [1]; in series [2]; in series [3]; in series [4]; on D(1A) dopamine receptor; in series [5] (cho-k1)) was “Not Active” throughout. Besides, the half-inhibitory concentration (IC50) result (in series [6]; on Cytochrome P450 2E1) was “Not Active” in each case. For the same molecule, the inhibition constant Ki entry (in series [2]; in series [3]; in series [6]; on Cytochrome P450 2E1) was “Not Active” throughout.
Turning to `CC(C)NCC(O)c1ccc(O)c(O)c1` (centres undefined) [ISOPROTERENOL], the 50% inhibitory concentration (IC50) result (in series [1]; in series [2]; in series [3]; in series [4]; on D(1A) dopamine receptor; in series [5] (cho-k1)) was “Not Active” each time. Further, the half-inhibitory concentration (IC50) entry (in series [6]; at Cytochrome P450 2E1) was “Not Active” throughout. Further, the Ki result (in series [2]; in series [3]; in series [6]; at Cytochrome P450 2E1) was “Not Active” in each case.
As to `CNC1(c2ccccc2Cl)CCCCC1=O` (centres undefined) [KETAMINE], the concentration for half-maximal inhibition (IC50) result (in series [1]; in series [2]; in series [3]; in series [4]; at D(1A) dopamine receptor; in series [5] (cho-k1)) was “Not Active” each time. The IC50 entry (in series [6]; against Cytochrome P450 2E1) was “Not Active” throughout. Also, the Ki result (in series [2]; in series [3]; in series [6]; at Cytochrome P450 2E1) was “Not Active” each time.
For `N#Cc1ccc(C(c2ccc(C#N)cc2)n2cncn2)cc1` [LETROZOLE], the concentration for half-maximal inhibition (IC50) entry (in series [1]; in series [2]; in series [3]; in series [4]; at D(1A) dopamine receptor; in series [5] (cho-k1)) was “Not Active” each time. The concentration for half-maximal inhibition (IC50) entry (in series [6]; at Cytochrome P450 2E1) was “Not Active” in each case. The Ki entry (in series [2]; in series [3]; in series [6]; on Cytochrome P450 2E1) was “Not Active” each time.
As to `CCN1CCC[C@H]1CNC(=O)c1cc(S(N)(=O)=O)ccc1OC` [LEVOSULPIRIDE], the concentration for half-maximal inhibition (IC50) entry (in series [1]; in series [2]; in series [3]; in series [4]; on D(1A) dopamine receptor; in series [5] (cho-k1)) was “Not Active” throughout. In addition, the 50% inhibitory concentration (IC50) result (in series [6]; at Cytochrome P450 2E1) was “Not Active” throughout. The inhibition constant Ki entry (in series [2]; in series [3]; in series [6]; at Cytochrome P450 2E1) was “Not Active” each time.
Regarding `CO[C@@H]1[C@@H](OC)[C@H](C)[C@@](O)(CC(=O)O)O[C@H]1[C@H](C)[C@H]1O[C@@]2(CC[C@@](C)([C@H]3CC[C@@](C)([C@@H]4O[C@@H]([C@H]5O[C@](C)(O)[C@H](C)C[C@@H]5C)C[C@@H]4O[C@@H]4C[C@H](OC)[C@@H](OC)[C@H](C)O4)O3)O2)C[C@H](O)[C@H]1C` [MADURAMICIN ACID], the IC50 in series [1] (read-out: IC50) was 3340 nM; in series [2], “Not Active”; in series [3], “Not Active”; in series [4], “Not Active”; in series [5] (cho-k1), “Not Active”; in series [6], “Not Active”. In addition, the concentration for half-maximal inhibition (IC50) entry against Cytochrome P450 2E1 is on record as “Not Active”. In addition, the Ki was 1350 nM in series [1] (read-out: Ki); “Not Active” in series [2]; “Not Active” in series [3]; “Not Active” in series [6]; “Not Active” at Cytochrome P450 2E1.
Regarding `CN[C@H]1CC[C@@H](c2ccc(Cl)c(Cl)c2)c2ccccc21` [SERTRALINE], the 50% inhibitory concentration (IC50) result (in series [1]; in series [4]; at Cytochrome P450 2E1) was “Not Active” each time. Besides, the inhibition constant (Ki) entry on Cytochrome P450 2E1 is “Not Active”.
As to `COc1cc2nc(N3CCN(C(=O)C4CCCO4)CC3)nc(N)c2cc1OC` (centres undefined) [TERAZOSIN], the IC50 entry (in series [2]; in series [3]; in series [4]; at D(1A) dopamine receptor; in series [5] (cho-k1); in series [6]) was “Not Active” in each case. Besides, at Cytochrome P450 2E1, the half-maximal inhibitory concentration (IC50) entry is “Not Active”. Moreover, the Ki result (in series [2]; in series [3]; in series [6]; on Cytochrome P450 2E1) was “Not Active” each time.
Turning to SODIUM ORTHOVANAD, the concentration for half-maximal inhibition (IC50) result (in series [1]; in series [3]; in series [4]; on D(1A) dopamine receptor; in series [5] (cho-k1); in series [6]) was “Not Active” throughout. Besides, the IC50 entry against Cytochrome P450 2E1 is on record as “Not Active”. Also, the inhibitory constant (Ki) entry (in series [1]; in series [3]; in series [4]; at D(1A) dopamine receptor; in series [5] (cho-k1); in series [6]) was “Not Active” each time. Moreover, the Ki result on Cytochrome P450 2E1 is on record as “Not Active”.
